Results reported in patent US10785975B2, “Water and feed antimicrobial preservative” (priority 2009, dated 2020).
Where two headings read alike, the source gives them in different places. Values belong to the molecule of their own block, whether it stands above or below them.

Experiments:
Salmonella typhimurium [1] = assay: Example 1: effect of pH buffering of acetic and propionic acid on antimicrobial activity in water; type: cell-based; details: for MIC at 4 Hr / MIC at 24 HR: Minimum Inhibitory Concentrations, by linear regression over 0.025-0.1% acid solutions, pH 3
Method: Propionic and acetic acids were buffered with ammonium hydroxide to pHs ranging from 1 to 7. Acid contents of the buffered solutions were determined by a weight to weight ratio calculation to obtain the same acid content in the test solutions. […] The pHs of the deionized water solutions were recorded and any problems with solubility noted.
(§1) 100 ul of a nutrient broth culture of Salmonella typhimurium was added to each dilution tube. After addition, tubes were vortexed and allowed to stand. At 4 and 24 hours after addition of the inoculum, 100 ul of the solution was plated on Standard Plate agar (triplicate plates). Plates were incubated at 37° C. for 24 hours prior to enumeration. The minimum effective dose of each acid was determined by linear regression.

Salmonella typhimurium [2] = assay: Example 3: buffered organic acid mixtures with pelargonic acid in water; type: cell-based
Method: (§2) Procedure: Propionic and acetic acids were buffered with ammonium hydroxide to a pH of 3 and combined with pelargonic in the ratios above. Acid content of the buffered solutions was determined by weight to weight ratio calculation (weight of acid/total weight of buffered solution) and adjusted to provide an equal acid value for each treatment. […] The pHs of the deionized water solutions were recorded and any problems with solubility noted.
as §1

Salmonella typhimurium [3] = assay: Study 4: pelargonic acid (1-20%) in buffered propionic or acetic acid in water; type: cell-based
Method: as §2, with “Propionic” for “Procedure: Propionic”, “listed.” for “above.”
as §1, with “enumeration.” for “enumeration. The minimum effective dose of each acid was determined by linear regression.”

Salmonella typhimurium [4] = assay: Study 6: capric acid in acetic or propionic acid against salmonella in poultry feed; type: cell-based; details: Capric/Acetic acids, 24 hours after treatment
Method: Commercial poultry feed amended with Salmonella typhimurium was treated with 1 or 3 kg/MT of the solutions listed below. Twenty four hours after treatment, 10 gr of feed was added to 90 ml Butterfield buffer, mixed and then 100 ul of the solution was plated on Standard Plate agar (triplicate plates). Plates were incubated at 37° C. for 24 hours prior to enumeration.

M. gypseum = details: acids tested independently, cited from earlier work
[5] = Product Conc. 0.025 (% acid solution in water)
[6] = Product Conc. 0.05 (% acid solution in water)
[7] = Product Conc. 0.075 (% acid solution in water)
[8] = Product Conc. 0.1 (% acid solution in water)
[9] = Product Conc. 0.025 (% total acid solution in water), 4 hr
[10] = Product Conc. 0.025 (% total acid solution in water)
[11] = Product Conc. 0.05 (% total acid solution in water), 4 hr
[12] = Product Conc. 0.05 (% total acid solution in water)
[13] = Product Conc. 0.075 (% total acid solution in water), 4 hr
[14] = Product Conc. 0.075 (% total acid solution in water)
[15] = Product Conc. 0.1 (% total acid solution in water), 4 hr
[16] = Product Conc. 0.1 (% total acid solution in water)
[17] = Product Concentration 0.025 (% total acid solution in water)
[18] = Product Concentration 0.05 (% total acid solution in water)

MIC at 4 Hr (Salmonella typhimurium [1]): 0.176
MIC at 24 HR (Salmonella typhimurium [1]): 0.073
Compound: CC(=O)O [Acetic pH 3, Acetic acid]
Salmonella at time Interval 4 hr % reduction (Salmonella typhimurium [1]; [5]): 27%
Salmonella at time Interval 4 hr cfu/g (Salmonella typhimurium [1]; [5]): 1100 cfu/g
Salmonella at time Interval 24 hr % reduction (Salmonella typhimurium [1]; [5]): 75%
Salmonella at time Interval 24 hr cfu/g (Salmonella typhimurium [1]; [5]): 300 cfu/g
Salmonella at time Interval 4 hr % reduction (Salmonella typhimurium [1]; [6]): 44%
Salmonella at time Interval 4 hr cfu/g (Salmonella typhimurium [1]; [6]): 843 cfu/g
Salmonella at time Interval 24 hr % reduction (Salmonella typhimurium [1]; [6]): 90%
Salmonella at time Interval 24 hr cfu/g (Salmonella typhimurium [1]; [6]): 117 cfu/g
Salmonella at time Interval 4 hr % reduction (Salmonella typhimurium [1]; [7]): 38%
Salmonella at time Interval 4 hr cfu/g (Salmonella typhimurium [1]; [7]): 927 cfu/g
Salmonella at time Interval 24 hr % reduction (Salmonella typhimurium [1]; [7]): 92%
Salmonella at time Interval 24 hr cfu/g (Salmonella typhimurium [1]; [7]): 90 cfu/g
Salmonella at time Interval 4 hr % reduction (Salmonella typhimurium [1]; [8]): 42%
Salmonella at time Interval 4 hr cfu/g (Salmonella typhimurium [1]; [8]): 873 cfu/g
Salmonella at time Interval 24 hr % reduction (Salmonella typhimurium [1]; [8]): 96%
Salmonella at time Interval 24 hr cfu/g (Salmonella typhimurium [1]; [8]): 43 cfu/g
Salmonella at time Interval 4 hr % reduction (Salmonella typhimurium [2]; [9]): 38%
Salmonella at time Interval 4 hr cfu/g (Salmonella typhimurium [2]; [9]): 943 cfu/g
Salmonella at time Interval 24 hr % reduction (Salmonella typhimurium [2]; [10]): 92%
Salmonella at time Interval 24 hr cfu/g (Salmonella typhimurium [2]; [10]): 123 cfu/g
Salmonella at time Interval 4 hr % reduction (Salmonella typhimurium [2]; [11]): 34%
Salmonella at time Interval 4 hr cfu/g (Salmonella typhimurium [2]; [11]): 1007 cfu/g
Salmonella at time Interval 24 hr % reduction (Salmonella typhimurium [2]; [12]): 92%
Salmonella at time Interval 24 hr cfu/g (Salmonella typhimurium [2]; [12]): 120 cfu/g
Salmonella at time Interval 4 hr % reduction (Salmonella typhimurium [2]; [13]): 34%
Salmonella at time Interval 4 hr cfu/g (Salmonella typhimurium [2]; [13]): 1007 cfu/g
Salmonella at time Interval 24 hr % reduction (Salmonella typhimurium [2]; [14]): 95%
Salmonella at time Interval 24 hr cfu/g (Salmonella typhimurium [2]; [14]): 77 cfu/g
Salmonella at time Interval 4 hr % reduction (Salmonella typhimurium [2]; [15]): 36%
Salmonella at time Interval 4 hr cfu/g (Salmonella typhimurium [2]; [15]): 967 cfu/g
Salmonella at time Interval 24 hr % reduction (Salmonella typhimurium [2]; [16]): 95%
Salmonella at time Interval 24 hr cfu/g (Salmonella typhimurium [2]; [16]): 83 cfu/g
Salmonella at time Interval 4 hr % reduction (Salmonella typhimurium [3]; [17]): 29%
Salmonella at time Interval 4 hr cfu/g (Salmonella typhimurium [3]; [17]): 1000 cfu/g
Salmonella at time Interval 24 hr % reduction (Salmonella typhimurium [3]; [17]): 96%
Salmonella at time Interval 24 hr cfu/g (Salmonella typhimurium [3]; [17]): 60 cfu/g
Salmonella at time Interval 4 hr % reduction (Salmonella typhimurium [3]; [18]): 32%
Salmonella at time Interval 4 hr cfu/g (Salmonella typhimurium [3]; [18]): 950 cfu/g
Salmonella at time Interval 24 hr % reduction (Salmonella typhimurium [3]; [18]): 99%
Salmonella at time Interval 24 hr cfu/g (Salmonella typhimurium [3]; [18]): 20 cfu/g

Compound: CCC(=O)O [Propionic pH 3, Propionic acid]
MIC at 4 Hr (Salmonella typhimurium [1]): 0.149
MIC at 24 HR (Salmonella typhimurium [1]): 0.069
Salmonella at time Interval 4 hr % reduction (Salmonella typhimurium [1]; [5]): 2%
Salmonella at time Interval 4 hr cfu/g (Salmonella typhimurium [1]; [5]): 1467 cfu/g
Salmonella at time Interval 24 hr % reduction (Salmonella typhimurium [1]; [5]): 84%
Salmonella at time Interval 24 hr cfu/g (Salmonella typhimurium [1]; [5]): 190 cfu/g
Salmonella at time Interval 4 hr % reduction (Salmonella typhimurium [1]; [6]): 44%
Salmonella at time Interval 4 hr cfu/g (Salmonella typhimurium [1]; [6]): 847 cfu/g
Salmonella at time Interval 24 hr % reduction (Salmonella typhimurium [1]; [6]): 93%
Salmonella at time Interval 24 hr cfu/g (Salmonella typhimurium [1]; [6]): 83 cfu/g
Salmonella at time Interval 4 hr % reduction (Salmonella typhimurium [1]; [7]): 35%
Salmonella at time Interval 4 hr cfu/g (Salmonella typhimurium [1]; [7]): 973 cfu/g
Salmonella at time Interval 24 hr % reduction (Salmonella typhimurium [1]; [7]): 95%
Salmonella at time Interval 24 hr cfu/g (Salmonella typhimurium [1]; [7]): 60 cfu/g
Salmonella at time Interval 4 hr % reduction (Salmonella typhimurium [1]; [8]): 60%
Salmonella at time Interval 4 hr cfu/g (Salmonella typhimurium [1]; [8]): 603 cfu/g
Salmonella at time Interval 24 hr % reduction (Salmonella typhimurium [1]; [8]): 98%
Salmonella at time Interval 24 hr cfu/g (Salmonella typhimurium [1]; [8]): 27 cfu/g
Salmonella at time Interval 4 hr % reduction (Salmonella typhimurium [2]; [9]): 25%
Salmonella at time Interval 4 hr cfu/g (Salmonella typhimurium [2]; [9]): 1133 cfu/g
Salmonella at time Interval 24 hr % reduction (Salmonella typhimurium [2]; [10]): 95%
Salmonella at time Interval 24 hr cfu/g (Salmonella typhimurium [2]; [10]): 70 cfu/g
Salmonella at time Interval 4 hr % reduction (Salmonella typhimurium [2]; [11]): 42%
Salmonella at time Interval 4 hr cfu/g (Salmonella typhimurium [2]; [11]): 880 cfu/g
Salmonella at time Interval 24 hr % reduction (Salmonella typhimurium [2]; [12]): 99%
Salmonella at time Interval 24 hr cfu/g (Salmonella typhimurium [2]; [12]): 17 cfu/g
Salmonella at time Interval 4 hr % reduction (Salmonella typhimurium [2]; [13]): 25%
Salmonella at time Interval 4 hr cfu/g (Salmonella typhimurium [2]; [13]): 1133 cfu/g
Salmonella at time Interval 24 hr % reduction (Salmonella typhimurium [2]; [14]): 99%
Salmonella at time Interval 24 hr cfu/g (Salmonella typhimurium [2]; [14]): 20 cfu/g
Salmonella at time Interval 4 hr % reduction (Salmonella typhimurium [2]; [15]): 44%
Salmonella at time Interval 4 hr cfu/g (Salmonella typhimurium [2]; [15]): 857 cfu/g
Salmonella at time Interval 24 hr % reduction (Salmonella typhimurium [2]; [16]): 99%
Salmonella at time Interval 24 hr cfu/g (Salmonella typhimurium [2]; [16]): 13 cfu/g
Salmonella at time Interval 4 hr % reduction (Salmonella typhimurium [3]; [17]): 29%
Salmonella at time Interval 4 hr cfu/g (Salmonella typhimurium [3]; [17]): 990 cfu/g
Salmonella at time Interval 24 hr % reduction (Salmonella typhimurium [3]; [17]): 91%
Salmonella at time Interval 24 hr cfu/g (Salmonella typhimurium [3]; [17]): 130 cfu/g
Salmonella at time Interval 4 hr % reduction (Salmonella typhimurium [3]; [18]): 29%
Salmonella at time Interval 4 hr cfu/g (Salmonella typhimurium [3]; [18]): 1000 cfu/g
Salmonella at time Interval 24 hr % reduction (Salmonella typhimurium [3]; [18]): 96%
Salmonella at time Interval 24 hr cfu/g (Salmonella typhimurium [3]; [18]): 50 cfu/g

MIC at 4 HR (Salmonella typhimurium [2]; Minimum Inhibitory Concentration of Pelargonic when mixed with acetic or propionic acid (buffered to pH 3), by linear regression, 4 hr): 0.171
Compound: CC(=O)O [Acetic acid]
% Reduction (Salmonella typhimurium [4]; 1 kg/ton): 41.3%
cfu/g (Salmonella typhimurium [4]; 1 kg/ton): 3367 cfu/g
% Reduction (Salmonella typhimurium [4]; 3 kg/ton): 54.6%
cfu/g (Salmonella typhimurium [4]; 3 kg/ton): 2600 cfu/g

Compound: CCCCCCCCCC(=O)O [capric acid]
minimum inhibitory concentration (MTC) to prevent growth of M. gypseum (M. gypseum; in liquid media): 75 µg/mL
minimum inhibitory concentration (MTC) to prevent growth of M. gypseum (M. gypseum; on solid media): 20 µg/mL
